We go through two compounds from US20200113853A1, “GAMMA-HYDROXYBUTYRATE COMPOSITIONS AND THEIR USE FOR THE TREATMENT OF DISORDERS” (Jazz Pharmaceuticals Ireland Limited, priority 2017, published 2020).

For data set [1] the following is noted: 2.25 g and 4.45 g doses, relative to IV administration; cited from earlier work.
The conditions of data set [2]: generally considered; Yu et al.; cited from earlier work.
Data set [3] in a line: Maximum solubility of GHB as a function of pH of the aqueous medium. The format is physicochemical. As to the method: It will be understood that the maximum solubility of GHB is affected by the pH of the aqueous medium. For example, at about pH 4, the maximum amount of Na⋅GHB that can be dissolved is about 450 mg/mL.

For the compound `O=C([O-])CCCO.[Na+]` [sodium oxybate, sodium gamma-hydroxybutyrate], the absolute bioavailability in data set [1] is recorded as 88%. Also, the solubility class result in data set [2] was “high solubility”. The “maximum amount that can be dissolved” value in data set [3] (at about pH 4, aqueous medium) is “about 450 mg/mL”.
On to `O=C(O)CCCO` [GHB, gamma-hydroxybutyrate], for which the “minimal pH that will dissolve 750 mg/mL GHB” value in data set [3] (750 mg/mL) is approximately 6.8.
